Assays:
FM55 melanoma cells = experiment: Melanin assay (melanogenesis) in moderately-pigmented FM55 melanoma; format: cell-based, human; settings: 72 h; for Changes in melanin levels, FM55 % change: L-18 0.001%, L-19 1%, L-20 0.5%, L-21 10 μg/ml, L-22 1%, L-23 0.05 μg/ml, IBMX 100 μM, NH4Cl 100 μM, niacinamide 10 μM, vs basal; for Melanin content, FM55 (pg/cell): same doses as E3, basal 9.92
Experimental: Cells were then washed 3-times with sterile PBS and supplemented with 350 μl of either fresh serum-free RPMI medium (melanoma cells) or starved serum-free and BPE-free melanocyte medium (EM) and incubated at 37° C. and 5% CO2 for 24 h. Cells were then washed with sterile PBS 3-times and incubated with IBMX 1×10^-4 M at 37° C. and 5% CO2 for 12, 24, and 72 h. Cells were then gently washed 3-times with sterile PBS and fixed in ice-cold methanol for 10 minutes at -20° C. Slides were stored at -20° C. until immunocytochemistry was performed. […] The melanin standards were pipetted into a 96 well plate to produce a calibration curve for the assessment of melanin content in the test samples. 400 μl of 1 M NaOH was added to each cell pellet and dissolved on a heat block (100° C.) for 15 minutes. The pellets were vortexed vigorously and the solubilized pellet was pipetted into the same 96-well plate. The optical densities of the sample were read at […] on a DYNEX REVELATION 4.02 program. Melanin content of each test sample was read from the calibration curve. […] In addition IBMX and NH4Cl (positive melanocytic modulators) and niacinamide (negative modulator) were used as controls. […] Controls: Melanocytic modulators: IBMX (100 μM), NH4Cl (100 μM), and niacinamide (10 μM). (A) Melanin content was determined spectrophotometrically (475 nm) after sodium hydroxide solubilisation. […] (B). Results were expressed as the change in melanin content (pg/cell) compared to unstimulated control levels. Means are ±SEM of 3 independent experiments with *P<0.05, **P<0.01, ***P<0.001.

Myo-X = Myo-X protein expression by Western blotting in normal human melanocytes; format: cell-based; settings: EM (F39), 12 h
Experimental: Western blot analysis: EMc in a confluent T225 flask were trypsinised and seeded into T25 flask with full medium and allowed to attach overnight. 24 h before treatment the medium was replaced with starved medium for 24 h. Cells were washed 3-times with sterile PBS, and incubated in starved medium alone, or L-18 (0.001%), L-19 (1%), L-20 (0.5%), L-21 (10 μg/ml), L-22 (1%) and L-23 (0.05 μg/ml) for 12 and 72 h. Controls included IBMX (100 μM) and niacinamide (10 μM).
40 μg of total protein from each cell extract was electrophoresed in reducing SDS-8%-PAGE and blotted on PVDF membranes (Millipore Corporation, Bedford, Mass.). […]
After extensive washes the blots were incubated with horseradish peroxidise conjugated secondary antibodies for 2 h. […] The chemiluminescent signal was detected by exposing the blot strips to Kodak XRA X-ray film (Kodak, UK) at various exposure times, followed by development in developing solution (Kodak, UK) until bands appeared, rinsed in tap water, fixed in the fixer (Kodak, UK) until the film turned blue, then rinsed with tap water and allowed to dry. […]
(A) Cell extracts were analyzed by Western blotting using anti-Myo-X and anti-β-actin as a loading control.
(B) Densitometric analysis of Myo-X and actin band intensities expressed as percentage change compared to unstimulated controls. […]

tyrosinase = experiment: Tyrosinase activity in normal human melanocyte and keratinocyte co-culture (EM:KC); format: cell-based; settings: 72 h; for % Change in EM Tyrosinase Activity of stimulated EM vs. stimulated EM-EK) level (i.e. 12.16): co-culture versus monoculture under the same stimulus; for % Change in EM Tyrosinase Activity vs. Basal EM level (i.e. 0), EM-EK: matched EM-EK co-culture (F52), L-18 0.001%, L-23 0.05 μg/ml, IBMX 100 μM, niacinamide 10 μM, basal co-culture +12.16
Experimental: The cells were prepared for SDS-PAGE and transblotted onto PVDF membranes. 70 μg of un-reduced protein extract without boiling was pipetted into the appropriate wells of 8% SDS-PAGE gels. […] The L-DOPA reaction was stopped by washing the membrane in distilled water and the membrane was scanned. […] Normal human epidermal melanocyte culture (Female-52; p5) and matched co-culture […] MC-KC were treated for 72 h with L-18 (0.001%), L-23 (0.05 μg/ml). Controls: Melanocytic modulators: IBMX (100 μM), and niacinamide (10 μM). Negative control lane: Keratinocytes only (A) Protein extracts were electroblotted and membranes stained with L-DOPA for the estimation of tyrosinase activity. (B) Densitometric scanning of band intensities and values were expressed as the fold increase compared to unstimulated control levels. Means are ±SEM of 3 independent experiments with *P<0.05, **P<0.01, ***P<0.001.

Row | SMILES | Changes in melanin levels, FM55 % change (FM55 melanoma cells) | Melanin content, FM55 (pg/cell) (FM55 melanoma cells) | effect on melanin content compared with basal levels (FM55 melanoma cells; FM55 melanoma cells, doses as E3) | increase in Myo-10 expression, fold versus untreated controls (Myo-X; IBMX 100 μM) [fold] | % Change in EM Tyrosinase Activity of stimulated EM vs. stimulated EM-EK) level (i.e. 12.16) (tyrosinase) | % Change in EM Tyrosinase Activity vs. Basal EM level (i.e. 0), EM-EK (tyrosinase) | Myo-X expression reduced by (Myo-X; niacinamide 10 μM) [%]
1 | CC(C)Cn1c(=O)n(C)c(=O)c2[nH]cnc21 [IBMX] | +250.8% | (34.8) pg/cell | visible increases in melanogenesis | 3 | +23.57% | +93.41% | 
2 | NC(=O)c1cccnc1 [niacinamide] | −5.94% | (9.33) pg/cell |  |  | −18.84% | −20.50% | 60

Source: patent US9668960B2, “Methods useful in studying or modulating skin or hair pigmentation, plant extracts for use in compositions and cosmetic care method” (L V M H RECHERCHE, priority 2008, dated 2017)
